Holding throughout (assay): Postemergence herbicidal activity, greenhouse trial (visual injury 0-100%)
Holding throughout (assay type): in vivo

Assay [1] concerns wild buckwheat (Polygonum convolvulus, POLCO). The note with it: Fallopia convolvulus, post-emergence, read-out: % visual injury Obs. As to the method: (§1) Seeds of the desired test plant species were planted in Sun Gro MetroMix® 306 planting mixture, which typically has a pH of 6.0 to 6.8 and an organic matter content of about 30 percent, in plastic pots with a surface area of 103.2 square centimeters (cm^2). […] The plants were grown for 7-36 days (d) in a greenhouse with an approximate 14-hour (h) photoperiod which was maintained at about 23° C. during the day and 22° C. during the night. Nutrients and water were added on a regular basis and supplemental lighting was provided with overhead metal halide 1000-Watt lamps as necessary. The plants were employed for testing when they reached the second or third true leaf stage.
(§2) Weighed amounts of technical or formulated material (emulsifiable concentrate (EC) or soluble concentrate (SL)) were dissolved in a volume of 97:3 volume per volume (v/v) acetone/dimethyl sulfoxide (DMSO) to stock solutions. […] The concentrated stock solutions were diluted with an aqueous mixture of 1.5% v/v of Agri-dex crop oil concentrate to provide the appropriate application rates. Compound requirements are based upon a 12 milliliter (mL) application volume at a rate of 187 liters per hectare (L/ha). Spray solutions of the experimental compound mixtures were prepared by adding the stock solutions to the appropriate amount of dilution solution to form a 12 mL spray solution in two-way combinations. Formulated compounds were applied to the plant material with an overhead Mandel track sprayer equipped with 8002E nozzles calibrated to deliver 187 L/ha over an application area of 0.503 square meters (m^2) at a spray height of 18 inches (43 centimeters (cm)) above average plant canopy. Control plants were sprayed in the same manner with the solvent blank. Application rates for component (a) are in g ae/ha, and application rates for component (b) are in g ai/ha.
(§3) The treated plants and control plants were placed in a greenhouse as described above and watered by sub-irrigation to prevent wash-off of the test compounds. After 20-22 d, the condition of the test plants as compared with that of the control plants was determined visually and scored on a scale of 0 to 100 percent where 0 corresponds to no injury and 100 corresponds to complete kill. Colby's equation was used to determine the herbicidal effects expected from the mixtures. […]
(§4) Weighed amounts of technical material were dissolved in a volume of 97:3 volume per volume (v/v) acetone/dimethyl sulfoxide (DMSO) to stock solutions. […] The concentrated stock solutions were diluted with an aqueous mixture of 1.5% v/v of Agri-dex crop oil concentrate to provide the appropriate application rates. Compound requirements are based upon a 12 milliliter (mL) application volume at a rate of 187 liters per hectare (L/ha).

For assay [2], the system named is thistle (Cirsium arvense, CIRAR). The note with it: Cirsium arvense, post-emergence, read-out: % visual injury Obs; for pest or weed control: 4.375 g ai/ha. As to the method:
as §1, §2, §3, §4

The subject of assay [3] is kochia (Kochia scoparia, KCHSC). The note with it: Bassia scoparia, post-emergence, read-out: % visual injury Obs. Here is the method: as §1, §2, §3, §4
Assay [4] deals with nutsedge (Cyperus esculentus, CYPES). The settings on record: Cyperus, post-emergence, read-out: % visual injury Obs; for pest or weed control: 4.375 g ai/ha. Here is the method: as §1
as §2, with “technical” for “technical or formulated”, “material” for “material (emulsifiable concentrate (EC) or soluble concentrate (SL))”
as §3, §2

Assay [5] has as its system ivyleaf morning-glory (Ipomoea hederacea, IPOHE). The note with it: Ipomoea hederacea, post-emergence, read-out: % visual injury Obs. Here is the method: as §1, §2
(§5) The treated plants and control plants were placed in a greenhouse as described above and watered by sub-irrigation to prevent wash-off of the test compounds. After 20-22 d, the condition of the test plants as compared with that of the control plants was determined visually and scored on a scale of 0 to 100 percent where 0 corresponds to no injury and 100 corresponds to complete kill. The condition of the test plants was compared with that of the control plants as determined visually and scored on a scale of 0 to 100 percent, where 0 corresponds to no injury and 100 corresponds to complete kill. Colby's equation was used to determine the herbicidal effects expected from the mixtures.
(§6) Compound 1 was formulated as an EC and was combined with florasulam, cloransulam, diclosulam, flumetsulam, penoxsulam, or pyroxsulam. Compound 2 was formulated as an EC and was combined with florasulam or pyroxsulam. The mixtures were applied to winter wheat (TRZAW), common rice (ORYSA), maize (ZEAMX), and the phytotoxicity of the herbicidal compositions was measured. In addition, the efficacy of the herbicidal compositions on blackgrass (Alopecurus myosuroides, ALOMY), pigweed (Amaranthus retrollexus, AMARE), wild oat (Avena fatua, AVEFA), common lambsquarters (Chenopodium album L., CHEAL), thistle (Cirsium arvense CIRAR), nutsedge (Cyperus esculentus, CYPES), barnyardgrass (Echinochloa crus-galli, ECHCG), poinsettia (Euphorbia heterophylla, EPHHL), ivyleaf morning-glory (Ipomoea hederacea, IPOHE), kochia (Kochia scoparia, KCHSC), wild buckwheat (Polygonum convolvulus, POLCO), grain sorghum (Sorghum vulgare, SORVU), chickweed (Stellaria media, STEME), wild pansy (Viola tricolor, VIOTR), was evaluated.
(§7) Weighed amounts of technical material were dissolved in a volume of 97:3 volume per volume (v/v) acetone/dimethyl sulfoxide (DMSO) to stock solutions. […] The concentrated stock solutions were diluted with an aqueous mixture of 1.5% v/v of Agri-dex crop oil concentrate to provide the appropriate application rates. Compound requirements are based upon a 12 milliliter (mL) application volume at a rate of 187 liters per hectare (L/ha). […]

Assay [6] concerns barnyardgrass (Echinochloa crus-galli, ECHCG). The note with it: Echinochloa crus-galli, post-emergence, read-out: % visual injury Obs. As to the method: as §1, §2, §5, §6, §7
Assay [7] has as its system poinsettia (Euphorbia heterophylla, EPHHL). The settings on record: Euphorbia heterophylla, post-emergence, read-out: % visual injury Obs. As to the method:
as §1
as §2, with “technical” for “technical or formulated”, “material” for “material (emulsifiable concentrate (EC) or soluble concentrate (SL))”
as §3, §2

Assay [8] has as its system common lambsquarters (Chenopodium album L., CHEAL). The note with it: Chenopodium album, post-emergence, read-out: % visual injury Obs. As to the method: as §1, §2, §5, §6, §7
In assay [9] the test system is grain sorghum (Sorghum vulgare, SORVU). As to the method:
as §1, §2, §5, §6, §7

The subject of assay [10] is chickweed (Stellaria media, STEME). The settings on record: Stellaria media, post-emergence, read-out: % visual injury Obs. Here is the method:
as §1, §2, §5, §6, §7

Assay [11] relates to wild pansy (Viola tricolor, VIOTR). The note with it: Viola tricolor, post-emergence, read-out: % visual injury Obs. Here is the method: as §1, §2, §5
as §6, with “Compound 1 was formulated as an EC and was combined with florasulam, cloransulam, diclosulam, flumetsulam, penoxsulam, or pyroxsulam.” left out
as §4

Assay [12] has as its system pigweed (Amaranthus retroflexus, AMARE). The settings on record: Amaranthus retroflexus, post-emergence, read-out: % visual injury Obs. As to the method:
as §1, §2, §3, §4

For assay [13], the system named is blackgrass (Alopecurus myosuroides, ALOMY). The settings on record: ALOMY; foramsulfuron 10 g ai/ha. As to the method: as §1, §2, §5, §6, §7

Like-named read-outs stand apart in the source and are kept apart here.

Take `COc1cc(OC)nc(NC(=O)NS(=O)(=O)N(C)S(C)(=O)=O)n1` [Amidosulfuron, amidosulfuron]: the pest or weed control at […] came out at 85% in [1] (7.5 g ai/ha); 20% in [2] (7.5 g ai/ha); 10% in [3] (7.5 g ai/ha); 20% in assay [4] (7.5 g ai/ha); 35% in assay [5] (7.5 g ai/ha); 0% in [6] (7.5 g ai/ha).

As for `COc1cc(OC)nc(NC(=O)NS(=O)(=O)c2c(-c3nnn(C)n3)cnn2C)n1` [Azimsulfuron, azimsulfuron], the pest or weed control in assay [3] (KCHSC, azimsulfuron 6.25 g ai/ha) turned out to be 0%; in [7] (EPHHL, azimsulfuron 6.25 g ai/ha) it was 10%; in assay [8] (CHEAL, azimsulfuron 6.25 g ai/ha), 10%; in [5] (IPOHE, azimsulfuron 6.25 g ai/ha), 93%; in [10] (STEME, azimsulfuron 6.25 g ai/ha), 20%; in [11] (VIOTR, azimsulfuron 6.25 g ai/ha), 60%. Further, the “% visual injury Obs” value in [9] (SORVU, azimsulfuron 6.25 g ai/ha) is listed as 65%.

Take `CCOc1nc(F)cc2nc(S(=O)(=O)Nc3c(Cl)cccc3Cl)nn12` [Diclosulam, diclosulam]: the pest or weed control in assay [2] turned out to be 93%; in [12] (4.375 g ai/ha) it was 60%; in assay [3] (4.375 g ai/ha), 50%; in assay [4], 50%; in [7] (4.375 g ai/ha) it was 60%; in [8] (4.375 g ai/ha) it was 0%. The values for the pest or weed control in assay [5] (4.375 g ai/ha), in [6] (4.375 g ai/ha) and in assay [10] (4.375 g ai/ha) were 93%, 30% and 0%, respectively.

On to `Cc1ccn2nc(S(=O)(=O)Nc3c(F)cccc3F)nc2n1` [Flumetsulam, flumetsulam], for which the pest or weed control in assay [2] was determined as 10%; in assay [3] (4.375 g ai/ha), 60%; in [4] it was 10%; in assay [7] (4.375 g ai/ha) it was 30%; in assay [11] (4.375 g ai/ha), 70%. The “% visual injury Obs” value in [9] (4.375 g ai/ha) is recorded as 60%.

In the case of `COc1cc(OC)nc(NC(=O)NS(=O)(=O)c2cc(NC=O)ccc2C(=O)N(C)C)n1` [Foramsulfuron, foramsulfuron], in assay [12] (AMARE, foramsulfuron 10 g ai/ha), the pest or weed control at 10 g/ha was 85%. In addition, the “% visual injury Obs” value in assay [13] turned out to be 93%.

On to `COC(=O)c1ccc(CNS(C)(=O)=O)cc1S(=O)(=O)NC(=O)Nc1nc(OC)cc(OC)n1` [Mesosulfuron, mesosulfuron], for which the pest or weed control at 3 g/ha is 20% in assay [1] (POLCO, mesosulfuron 3 g ai/ha) and 10% in [3] (KCHSC, mesosulfuron 3 g ai/ha). The “% visual injury Obs” value in assay [9] (SORVU, mesosulfuron 3 g ai/ha) was 97%.

Regarding `COc1cnc(OC)n2nc(NS(=O)(=O)c3c(OCC(F)F)cccc3C(F)(F)F)nc12` [Penoxsulam, penoxsulam], the pest or weed control at 5 g/ha in [3] (5 g ai/ha) was determined as 10%; in assay [4] (5 g ai/ha) it was 70%; in assay [7] (5 g ai/ha), 60%; in assay [5] (5 g ai/ha), 90%. For the same compound, the “% visual injury Obs” value in assay [9] (5 g ai/ha) came out at 0%.

The values are drawn from US20190364896A1, “SYNERGISTIC WEED CONTROL FROM APPLICATIONS OF PYRIDINE CARBOXYLIC ACID HERBICIDES AND ALS INHIBITORS” (Dow AgroSciences LLC, priority 2014, published 2019).
